Measurements reported in patent publication US20080269204A1, “Compounds and Methods of Use Thereof” (priority 2004, published 2008).

System: TNF-α production by PMBC
Test: Inhibition of TNF-α production by peripheral blood monocyte cells (PMBC), LPS-stimulated
Format: cell-based
Conditions: 1 ug/mL LPS, 24 hours at 37° C, TNF-α quantified by EIA
Description: Inhibition of TNF-α Production By Peripheral Blood Monocyte Cells (PMBC)
PMBC in RPMI 1640 Cell Culture Medium (containing 1% Penicillin and 1% Streptomycin) are aliquoted into 96-well plates at 5×10^5 cells/well and pre-incubated with test compounds for 30 minutes at 37° C. After incubation, 1 ug/mL LPS is added to each well to stimulate TNF-α production and the plate is incubated for 24 hours at 37° C. After incubation, the supernatant is removed and the TNF-α secreted is quantified using EIA detection kits commercially available from R&D Systems (USA). The results from this assay are expressed as percent inhibition of control activity, with the control being stimulated wells with no test compound. Dexamethasone is used as a standard reference compound in the assay and is tested with each experiment. All test compounds are diluted from 10 mM stock solutions in 100% DMSO.

| IC50 | Compound |
| --- | --- |
| 700 nM | O=C1CSc2ccccc2N1CCCCCB(O)O [Example 4, 5-(2,3-dihydro-3-oxobenzo[b][1,4]thiazin-4-yl)pentylboronic acid] |
| 810 nM | CCOC(=O)CC1Sc2ccccc2N(CCCCCB(O)O)C1=O (stereo not drawn) [Example 8, ethyl 2-(3,4-dihydro-3-oxo-4-(5-pentylboronic acid)-2H-benzo[b][1,4]thiazin-2-yl)acetate] |
| 260 nM | O=C1COc2ccc(F)cc2N1CCCCCB(O)O [Example 3, 5-(6-fluoro-2,3-dihydro-3-oxobenzo[b][1,4]oxazin-4-yl)pentylboronic acid] |

Second part, the molecule before the results:

| Compound | IC50 |
| --- | --- |
| O=C1CSc2cc(Cl)ccc2N1CCCCCB(O)O [Example 5, 5-(7-chloro-2,3-dihydro-3-oxobenzo[b][1,4]thiazin-4-yl)pentylboronic acid] | 80 nM |
| O=C1COc2ccccc2N1CCCCCB(O)O [Example 7, 5-(2,3-dihydro-3-oxobenzo[b][1,4]oxazin-4-yl)pentylboronic acid] | 360 nM |
| O=C1COc2cc([N+](=O)[O-])ccc2N1CCCCCB(O)O [Example 6, 5-(2,3-dihydro-7-nitro-3-oxobenzo[b][1,4]oxazin-4-yl)pentylboronic acid] | 74 nM |
